Experimental data reported in EP0326329B1, “Quinazoline derivatives useful as insecticides” (Dow AgroSciences LLC, priority 1988, dated 1989).

Tests used:
Type in all cases: in vivo
[1] = test system: Erysiphe graminis tritici (powdery mildew); assay: Greenhouse Test 1, foliar spray fungicide screen (POWD MDEW), host wheat; conditions: disease control rating, 400 ppm (+++ at 100 ppm)
[2] = test system: Pyricularia oryzae (rice blast); conditions: disease control rating, foliar spray, host rice; 400 ppm (+++ at 100 ppm)
[3] = test system: Puccinia recondita tritici (leaf rust); assay: Greenhouse Test 1, foliar spray fungicide screen (LEAF RUST), host wheat; conditions: disease control rating, 400 ppm (+++ at 100 ppm)
[4] = test system: Botrytis cinerea (gray mold); assay: Greenhouse Test 1, foliar spray fungicide screen (GRAY MOLD), host grape berries; conditions: disease control rating, 400 ppm (+++ at 100 ppm)
[5] = test system: Pseudoperonospora cubensis (downy mildew); assay: Greenhouse Test 1, foliar spray fungicide screen (DOWN MDEW), host squash; conditions: disease control rating, 400 ppm (+++ at 100 ppm)
[6] = test system: Southern corn rootworm (Diabrotica undecimpuctata howardi Barber); assay: Mite/insect screen, soil treatment (CRW); conditions: percent mortality, soil treatment; for mortality at 12 ppm / mortality at 24 ppm: Diabrotica, read-out: CRW RESULTS %; for mortality at 24 ppm: CRW rate 24.00 ppm
Summary of the method: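 Compounds dissolved in acetone/alcohol (50:50) with Toximul R/S emulsifiers, diluted with water. Soil (15 g, with presoaked corn seed) treated with 1 mL test solution, dried 6–12 h, then five 2–3 instar larvae added; held at 23°C. Percent mortality and phytotoxicity scored after standard exposure periods.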

[7] = test system: southern armyworm (Spodopetra eridania Cramer); assay: Mite/insect screen, sprayed squash leaves (SAW); conditions: percent mortality; for mortality at 200 ppm / mortality at 400 ppm: Spodoptera eridania, read-out: SAW RESULTS %; for mortality at 400 ppm: spray rate 400 ppm
Summary of the method: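 For the armyworm test, two uninfested sprayed leaves were excised, once dry for an hour, and placed in a Petri dish holding larvae. Spray solutions came from an emulsifier-containing 50:50 acetone/alcohol formulation diluted with water and were applied to runoff.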

[8] = test system: Twospotted spider mites (Tetranychus urticae Koch); assay: Mite/insect screen, sprayed squash cotyledons (SM); conditions: Tetranychus urticae, percent mortality, read-out: SM RESULTS %; for mortality at 200 ppm: spray rate 200 ppm; for mortality at 400 ppm: spray rate 400 ppm
Summary of the method: (§1)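 Mortality and phytotoxicity read after standard exposure periods on sprayed squash: cotyledons for melon aphids and twospotted spider mites, excised leaves placed with southern armyworm larvae. Spray solutions were water dilutions of acetone/alcohol stocks containing TOXIMUL R and S emulsifiers, applied to runoff at 10 psi and air-dried one hour.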

[9] = test system: melon aphids (Aphis gossypii Glover); assay: Mite/insect screen, sprayed squash cotyledons (MA); conditions: Aphis gossypii, percent mortality, read-out: MA RESULTS %; for mortality at 200 ppm: spray rate 200 ppm; for mortality at 400 ppm: spray rate 400 ppm
Summary of the method: as §1

| SMILES | POWD MDEW [1] | RICE BLAST [2] | LEAF RUST [3] | GRAY MOLD [4] | DOWN MDEW [5] | mortality at 12 ppm ([6]; CRW rate 12.00 ppm) [%] | mortality at 24 ppm [6] [%] | mortality at 200 ppm ([7]; spray rate 200 ppm) [%] | mortality at 400 ppm [7] [%] | mortality at 200 ppm [8] [%] | mortality at 400 ppm [8] [%] | mortality at 200 ppm [9] [%] | mortality at 400 ppm [9] [%] | CRW RESULTS % ([6]; CRW rate 12.00 ppm) [%] | SAW RESULTS % ([7]; spray rate 200 ppm) [%] |
| --- | --- | --- | --- | --- | --- | --- | --- | --- | --- | --- | --- | --- | --- | --- | --- |
| Fc1cccc2c(OCCCc3ccc(Oc4ccccc4)cc3)ncnc12 [Example 119, 8-fluoro-4-[3-(4-phenoxyphenyl)propoxy]quinazoline] | + (+ = 20-89% control at 400 ppm) | ++ (++ = 90-100% control at 400 ppm) | + (+ = 20-89% control at 400 ppm) | - (- = 0-19% control at 400 ppm) | - (- = 0-19% control at 400 ppm) | 0 | 0 | 0 | 90 | 50 | 0 | 80 | 0 |  |  |
| CC(C)c1ccc(CCNc2ncnc3c(F)cccc23)cc1 [Example 96, 8-fluoro-N-[2-[4-(i-propyl)phenyl]ethyl]-4-quinazolinamine] | +++ (+++ = 90-100% control at 100 ppm) | +++ (+++ = 90-100% control at 100 ppm) | +++ (+++ = 90-100% control at 100 ppm) | - (- = 0-19% control at 400 ppm) | +++ (+++ = 90-100% control at 100 ppm) | 0 | 0 | 100 | 100 | 50 | 0 | 50 | 0 |  |  |
| Fc1ccc(CCOc2ncnc3c(F)cccc23)c(F)c1 [Example 159, 8-fluoro-4-[2-(2,4-difluorophenyl)ethoxy]quinazoline] | +++ (+++ = 90-100% control at 100 ppm) | +++ (+++ = 90-100% control at 100 ppm) | +++ (+++ = 90-100% control at 100 ppm) | - (- = 0-19% control at 400 ppm) | +++ (+++ = 90-100% control at 100 ppm) | 0 | 0 | 0 | 0 | 90 | 80 | 80 | 100 |  |  |
| Fc1cccc2c(OCCc3cccc4ccccc34)ncnc12 [Example 141, 8-fluoro-4-[2-(1-naphthalenyl)ethoxy]quinazoline] | + (+ = 20-89% control at 400 ppm) | + (+ = 20-89% control at 400 ppm) | + (+ = 20-89% control at 400 ppm) | - (- = 0-19% control at 400 ppm) | + (+ = 20-89% control at 400 ppm) |  | 0 |  | 0 |  | 0 |  | 0 |  |  |
| Fc1cccc2c(OCCc3cccc(C(F)(F)F)c3)ncnc12 [Example 133, 8-fluoro-4-[2-[3-(trifluoromethyl)phenyl]ethoxy]quinazoline] | +++ (+++ = 90-100% control at 100 ppm) | +++ (+++ = 90-100% control at 100 ppm) | +++ (+++ = 90-100% control at 100 ppm) | - (- = 0-19% control at 400 ppm) | + (+ = 20-89% control at 400 ppm) | 0 | 100 | 0 | 0 |  | 100 |  | 100 | 0 | 0 |
